The target in experiment [1] is T1, E. coli N5-CAIR mutase (Escherichia coli, UniProt P0AG18).
T1 construct: His-tag (inferred from cobalt-resin/imidazole purification); made in house; host or cells: E. coli BL21(DE3), plasmid pJK057 (Addgene)
T1 sequence (P0AG18 1-169): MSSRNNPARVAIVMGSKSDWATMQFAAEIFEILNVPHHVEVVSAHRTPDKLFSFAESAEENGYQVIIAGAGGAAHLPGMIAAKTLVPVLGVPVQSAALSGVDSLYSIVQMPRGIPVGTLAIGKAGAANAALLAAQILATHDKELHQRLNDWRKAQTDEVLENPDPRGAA
Nature of the experiment: biochemical. It counts as biochemical.

Experiment [2] deals with T1, E. coli N5-CAIR mutase. The experiment can be described thus: Thermal shift assay (thermal binding assay). The note with it: NAIR 20 μM, eight replicates; enzyme alone 57 ± 0.36°C.
For experiment [3], the system named is Gallus gallus AIR carboxylase. The experiment can be described thus: Inhibition of AIR carboxylase by NAIR (literature). It is filed as biochemical.
For experiment [4], the target named is bacterial N5-CAIR mutase. The note with it: bacterial enzyme; cited from earlier work.
The target of experiment [5] is Gallus gallus AIR carboxylase. The note with it: cited from earlier work.

Structures are written as SMILES.

Consider 8 compounds from article PMC11451730, “A Fragment-Based Screen for Inhibitors of Escherichia coli N5-CAIR Mutase” (Research Square, 2024).

One may read the Ki as the equilibrium dissociation constant of an inhibitor or competing ligand from its target. As for `CN1CCCC(c2cnc(-c3ncco3)cn2)C1` (stereo not drawn) [Compound 2], in experiment [1], the affinity corresponds to a Ki of 4.8 µM and the mechanism of inhibition entry is given as “sigmoidal Michaelis-Menten curve”.

`Nc1c([N+](=O)[O-])ncn1[C@@H]1O[C@H](COP(=O)(O)O)[C@@H](O)[C@H]1O` [NAIR, 4-nitro-5-aminoimidazole ribonucleotide]: in experiment [2], the “average melting temperature of N5-CAIR mutase with compound bound” value turned out to be 75 ± 0.32 °C. For the same compound, in experiment [3], the “selectivity for AIR carboxylase over N5-CAIR mutase” value is 1000 fold. Also, the Ki in experiment [4] is 0.5 µM; in experiment [5], 0.00034 µM.

On to `Cc1cnc(-c2ccc(C3CCCNC3)nc2)s1` (stereo not drawn) [Compound 9], for which, in experiment [1], the affinity corresponds to a Ki of 83 µM and the mechanism of inhibition entry is “competitive”.

Take `Cc1ccc(Nc2nnns2)cc1` [Compound 34, reference compound]: the “inhibition of E. coli N5-CAIR mutase” value in experiment [1] is given as “do not show inhibition”.

On to `Cc1nc(-c2ccc(C3CCCN3)nc2)sc1C` (stereo not drawn) [Compound 22], for which, in experiment [1], the affinity, expressed as Ki, was 159 µM and the mechanism of inhibition result is on record as “uncompetitive”.

As for `c1cnc(CC2CCNC2)nc1` (stereo not drawn) [Compound 25], in experiment [1], the Ki was determined as 31 µM and the mechanism of inhibition result was “non-competitive”.

Consider `CCc1ccc(C(=O)Nc2nncs2)s1` [Compound 35, reference compound], for which the “inhibition of E. coli N5-CAIR mutase” value in experiment [1] is listed as “do not show inhibition”.

In the case of `CN1CCCC(Cc2cccnc2)C1` (stereo not drawn) [Compound 10], the “inhibition of enzyme activity” value in experiment [1] was “no inhibition”.
